Measured values published in patent publication US20050009030A1, “Histone deacetylase: novel molecular target of neurotoxicity” (priority 2002, published 2005).

Test system: rat cerebellar granule cells
Assay: Excitotoxicity in rat cerebellar granule cells induced by NMDA/serine or kainate, measured by MTT test
Format: cell-based
Conditions: excitotoxicity induced by 100 μM NMDA and 10 μM serine, or by 50 μM kainate; 30 to 40% toxicity by MTT tests
Procedure: For this example, rat cerebellar granule cells were placed in culture, according to techniques known to those skilled in the art. Excitotoxicity was induced in these cells by two types of treatment: firstly, by the joint administration of 100 μM NMDA (N-Methyl-D-aspartic acid) and 10 μM serine, and secondly by administration of 50 μM kainate. Under the experimental conditions adopted, 30 to 40% toxicity was observed and measured using MTT tests, known to those skilled in the art.

In the case of CC(/C=C/C(=O)NO)=C\[C@@H](C)C(=O)c1ccc(N(C)C)cc1 [trichostatin A], the Inhibition of excitotoxicity is reported as “Inhibition of excitotoxicity can be demonstrated”.
